# Measurements as given in patent US11965039B2, “Compstatin analogues and their medical uses” (priority 2018, dated 2024).
# pIC50: −log10 of the molar value. Starred links: 1 amine or outer side, 2 acyl side, 3 side chain; linkers in the order of their positions; H or OH if unused. Positions of bridges follow the written chain, without caps; N, C: chain ends. Non-standard residues stand in square brackets, D forms with d. Residues, ends and D or L forms follow the SMILES beside them. Groups on a side chain read outwards from the residue. *: point of attachment. C20 diacid = O=C(O)CCCCCCCCCCCCCCCCCCC(=O)*; Trp(1-Me) = Cn1cc(C[C@H](N)C(=O)O)c2ccccc21; C18 diacid = O=C(O)CCCCCCCCCCCCCCCCC(=O)*; C16 diacid = O=C(O)CCCCCCCCCCCCCCC(=O)*; γGlu = O=C(O)[C@H](CCC(=O)[*:2])N[*:1]; AEEA = NCCOCCOCC(=O)O; Sar = CNCC(=O)O
# System: classical complement pathway
# Experiment: In vitro haemolysis assay (inhibition of classical complement pathway)
# Assay type: cell-based, human
# Conditions: human serum, sensitized sheep red blood cells; Table 3, given as upper bounds; read-out: IC50, inhibition of hemolysis
# Summary of the method: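 Compound dilutions preincubated 15 min at room temperature with diluted human serum (titrated per batch for 70-90% maximal haemolysis), then antibody-sensitized sheep RBC (10^7/well) added for 30 min at 37 °C in Tris/casein buffer, pH 7.4. Stopped with EDTA; haemolysis read at 405 nm; IC50 by 4PL fit.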
row,Compound,pIC50
1,CC[C@H](C)[C@H](NC(C)=O)C(=O)N[C@H]1CSSC[C@@H](C(=O)N[C@H](C(=O)N[C@@H](CCC(=O)O)C(=O)NCC(=O)N[C@@H](CCC(=O)O)C(=O)N[C@@H](CCCCNC(=O)COCCOCCNC(=O)COCCOCCNC(=O)CC[C@H](NC(=O)CCCCCCCCCCCCCCCCC(=O)O)C(=O)O)C(N)=O)[C@@H](C)O)NC(=O)[C@H](CCCNC(=N)N)NC(=O)[C@H](Cc2c[nH]cn2)NC(=O)[C@H](CCC(=O)O)NC(=O)CNC(=O)[C@H](Cc2c[nH]c3ccccc23)NC(=O)[C@H](CC(=O)O)NC(=O)[C@H](CCC(N)=O)NC(=O)[C@H](Cc2c[nH]c3ccccc23)NC(=O)[C@H]([C@@H](C)CC)NC1=O [Compound 97] (Ac-ICIWQDWGEHRCTEGEK([AEEA-AEEA-γGlu-C18 diacid])-NH2; disulfide 2-12),> 6.60
2,CC[C@H](C)[C@H](NC(C)=O)C(=O)N[C@H]1CSSC[C@@H](C(=O)N[C@H](C(=O)N[C@@H](CCC(=O)O)C(=O)NCC(=O)N[C@@H](CCCCNC(=O)COCCOCCNC(=O)COCCOCCNC(=O)CC[C@H](NC(=O)CCCCCCCCCCCCCCCCCCC(=O)O)C(=O)O)C(N)=O)[C@@H](C)O)NC(=O)[C@H](CCCNC(=N)N)NC(=O)[C@H](Cc2c[nH]cn2)NC(=O)[C@H](CCC(=O)O)NC(=O)CNC(=O)[C@H](Cc2c[nH]c3ccccc23)NC(=O)[C@H](CC(=O)O)NC(=O)[C@H](CCC(N)=O)NC(=O)[C@H](Cc2c[nH]c3ccccc23)NC(=O)[C@H]([C@@H](C)CC)NC1=O [Compound 98] (Ac-ICIWQDWGEHRCTEGK([AEEA-AEEA-γGlu-C20 diacid])-NH2; disulfide 2-12),> 6.30
3,CC[C@H](C)[C@H](NC(=O)[C@H](C)NC(=O)[C@H](CO)NC(=O)[C@H](CO)NC(=O)[C@H](CCC(=O)O)NC(=O)CCCCCCCCCCCCCCC(=O)O)C(=O)N[C@H]1CSSC[C@@H](C(=O)N[C@H](C(=O)N[C@@H](CCC(=O)O)C(=O)NCC(=O)N[C@@H](CCC(=O)O)C(N)=O)[C@@H](C)O)NC(=O)[C@H](CCCNC(=N)N)NC(=O)[C@H](Cc2c[nH]cn2)NC(=O)[C@H](CCC(=O)O)NC(=O)CNC(=O)[C@H](Cc2c[nH]c3ccccc23)NC(=O)[C@H](CC(=O)O)NC(=O)[C@H](CCC(N)=O)NC(=O)[C@H](Cc2c[nH]c3ccccc23)NC(=O)[C@H]([C@@H](C)CC)NC1=O [Compound 99] ({C16 diacid}-ESSAICIWQDWGEHRCTEGE-NH2; disulfide 6-16),> 6.60
4,CC[C@H](C)[C@H](NC(=O)[C@H](C)NC(=O)[C@H](CO)NC(=O)CNC(=O)[C@H](CCCCNC(=O)COCCOCCNC(=O)COCCOCCNC(=O)CC[C@H](NC(=O)CCCCCCCCCCCCCCC(=O)O)C(=O)O)NC(C)=O)C(=O)N[C@H]1CSSC[C@@H](C(=O)N[C@H](C(=O)N[C@@H](CCC(=O)O)C(=O)NCC(=O)N[C@@H](CCC(=O)O)C(N)=O)[C@@H](C)O)NC(=O)[C@H](CCCNC(=N)N)NC(=O)[C@H](Cc2c[nH]cn2)NC(=O)[C@H](CCC(=O)O)NC(=O)CNC(=O)[C@H](Cc2c[nH]c3ccccc23)NC(=O)[C@H](CC(=O)O)NC(=O)[C@H](CCC(N)=O)NC(=O)[C@H](Cc2c[nH]c3ccccc23)NC(=O)[C@H]([C@@H](C)CC)NC1=O [Compound 100] (Ac-K([AEEA-AEEA-γGlu-C16 diacid])GSAICIWQDWGEHRCTEGE-NH2; disulfide 6-16),> 6.30
5,CC[C@H](C)[C@H](NC(=O)[C@H](C)NC(=O)[C@H](CO)NC(=O)CNC(=O)[C@H](CCC(=O)O)NC(C)=O)C(=O)N[C@H]1CSSC[C@@H](C(=O)N[C@H](C(=O)N[C@@H](CCC(=O)O)C(=O)NCC(=O)N[C@@H](CCCCNC(=O)CC[C@H](NC(=O)CCCCCCCCCCCCCCC(=O)O)C(=O)O)C(N)=O)[C@@H](C)O)NC(=O)[C@H](CCCNC(=N)N)NC(=O)[C@H](Cc2c[nH]cn2)NC(=O)[C@H](CCC(=O)O)NC(=O)CNC(=O)[C@H](Cc2c[nH]c3ccccc23)NC(=O)[C@H](CC(=O)O)NC(=O)[C@H](CCC(N)=O)NC(=O)[C@H](Cc2c[nH]c3ccccc23)NC(=O)[C@H]([C@@H](C)CC)NC1=O [Compound 101] (Ac-EGSAICIWQDWGEHRCTEGK([γGlu-C16 diacid])-NH2; disulfide 6-16),> 6.30
6,CC[C@H](C)[C@@H]1NC(=O)[C@@H](NC(=O)[C@H](Cc2ccc(O)cc2)NC(=O)[C@H](C)NC(=O)[C@H](CO)NC(=O)CNC(=O)[C@H](CCC(=O)O)NC(C)=O)CSSC[C@@H](C(=O)N(C)CC(=O)N[C@@H](CCC(=O)O)C(=O)NCC(=O)N[C@@H](CCCCN)C(=O)N[C@@H](CCCCNC(=O)CC[C@H](NC(=O)CNC(=O)CC[C@H](NC(=O)CCCCCCCCCCCCCCCCC(=O)O)C(=O)O)C(=O)O)C(N)=O)NC(=O)[C@H](CCCNC(=N)N)NC(=O)[C@H](Cc2c[nH]cn2)NC(=O)[C@H](CCC(=O)O)NC(=O)CNC(=O)[C@H](Cc2c[nH]c3ccccc23)NC(=O)[C@H](CC(=O)O)NC(=O)[C@H](CCC(N)=O)NC(=O)[C@H](Cc2cn(C)c3ccccc23)NC1=O [Compound 110] (Ac-EGSAYCI[Trp(1-Me)]QDWGEHRC[Sar]EGKK([γGlu-Gly-γGlu-C18 diacid])-NH2; disulfide 6-16),> 6.60
7,CC[C@H](C)[C@@H]1NC(=O)[C@@H](NC(=O)[C@H](Cc2ccc(O)cc2)NC(=O)[C@H](CCC(=O)O)NC(=O)[C@H](CO)NC(C)=O)CSSC[C@@H](C(=O)N(C)CC(=O)N[C@@H](CCC(=O)O)C(=O)NCC(=O)N[C@@H](C)C(=O)N[C@@H](CCCCNC(=O)CC[C@H](NC(=O)CNC(=O)CC[C@H](NC(=O)CCCCCCCCCCCCCCCCC(=O)O)C(=O)O)C(=O)O)C(N)=O)NC(=O)[C@H](CCCNC(=N)N)NC(=O)[C@H](Cc2c[nH]cn2)NC(=O)[C@H](CCC(=O)O)NC(=O)CNC(=O)[C@H](Cc2c[nH]c3ccccc23)NC(=O)[C@H](CC(=O)O)NC(=O)[C@H](CCC(N)=O)NC(=O)[C@H](Cc2cn(C)c3ccccc23)NC1=O [Compound 112] (Ac-SEYCI[Trp(1-Me)]QDWGEHRC[Sar]EGAK([γGlu-Gly-γGlu-C18 diacid])-NH2; disulfide 4-14),> 6.30
8,CC[C@H](C)[C@@H]1NC(=O)[C@@H](NC(=O)[C@H](Cc2ccc(O)cc2)NC(=O)[C@H](CCC(=O)O)NC(=O)CNC(=O)[C@H](CO)NC(=O)[C@H](C)NC(C)=O)CSSC[C@@H](C(=O)N(C)CC(=O)N[C@@H](CCC(=O)O)C(=O)NCC(=O)N[C@@H](CCC(=O)O)C(=O)N[C@@H](CCCCNC(=O)CC[C@H](NC(=O)CNC(=O)CC[C@H](NC(=O)CCCCCCCCCCCCCCCCC(=O)O)C(=O)O)C(=O)O)C(N)=O)NC(=O)[C@H](CCCNC(=N)N)NC(=O)[C@H](Cc2c[nH]cn2)NC(=O)[C@H](CCC(=O)O)NC(=O)CNC(=O)[C@H](Cc2c[nH]c3ccccc23)NC(=O)[C@H](CC(=O)O)NC(=O)[C@H](CCC(N)=O)NC(=O)[C@H](Cc2cn(C)c3ccccc23)NC1=O [Compound 113] (Ac-ASGEYCI[Trp(1-Me)]QDWGEHRC[Sar]EGEK([γGlu-Gly-γGlu-C18 diacid])-NH2; disulfide 6-16),> 6.30
